Read-outs that look alike come from different tables or passages of the source.
Columns and labels:
OATP1B1 and OATP1B3 [1] = settings: for Co-Incubation R / Pre+Co-Incubation R: Hepatocytes, substrate rosuvastatin, R-value model; for accumulation of [3H]rosuvastatin after inhibitor pre-incubation: washing
OATP1B1 [2] = settings: OATP1B1-expressing cell line, substrate E217βG; ref Pahwa et al., 2017; cited from earlier work
OATP1B1 and OATP1B3 [3] = settings: both cell lines and human SCH; vs US FDA cut-off 1.1
OATP1B3 [4] = target: T1, OATP1B3 (Homo sapiens, UniProt Q9NPD5); settings: OATP1B3-expressing cell line, substrate E217βG; ref Pahwa et al., 2017; cited from earlier work
T1 sequence (Q9NPD5 1-702): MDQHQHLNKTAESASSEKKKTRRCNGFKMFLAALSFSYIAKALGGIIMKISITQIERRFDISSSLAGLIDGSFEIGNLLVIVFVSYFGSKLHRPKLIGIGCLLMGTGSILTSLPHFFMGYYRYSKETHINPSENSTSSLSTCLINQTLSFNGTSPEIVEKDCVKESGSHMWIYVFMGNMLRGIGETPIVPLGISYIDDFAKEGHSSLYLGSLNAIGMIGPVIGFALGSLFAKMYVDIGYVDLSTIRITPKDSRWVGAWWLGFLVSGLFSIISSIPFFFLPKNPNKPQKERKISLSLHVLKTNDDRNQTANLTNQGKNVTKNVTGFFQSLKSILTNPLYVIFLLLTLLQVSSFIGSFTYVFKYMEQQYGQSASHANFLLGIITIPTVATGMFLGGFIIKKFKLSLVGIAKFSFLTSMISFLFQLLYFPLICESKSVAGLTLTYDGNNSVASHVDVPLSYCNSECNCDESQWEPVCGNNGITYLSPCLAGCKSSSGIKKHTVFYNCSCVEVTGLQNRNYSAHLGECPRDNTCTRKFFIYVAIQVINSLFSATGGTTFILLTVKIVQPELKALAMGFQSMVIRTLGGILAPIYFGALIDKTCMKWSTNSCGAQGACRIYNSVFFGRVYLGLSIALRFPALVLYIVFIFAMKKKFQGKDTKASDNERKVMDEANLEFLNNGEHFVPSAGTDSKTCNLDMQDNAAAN

OATP1B3 [5] = target: T1, OATP1B3; test: Inhibition of [3H]CCK-8 accumulation in human SCH; type: in vitro ADME; settings: mean ± SE
OATP1B1 and OATP1B3 [6] = test: Inhibition of [3H]pitavastatin accumulation in human SCH; type: in vitro ADME; settings: for Co-Incubation R / Pre+Co-Incubation R: Hepatocytes, substrate pitavastatin, R-value model; for accumulation of [3H]pitavastatin after inhibitor pre-incubation: human SCH, washing
OATP1B1 [7] = settings: OATP1B1-expressing cell line, substrate rosuvastatin; ref Farasyn et al., 2019; cited from earlier work
[8] = Estimated maximum total plasma concentration at the inlet to the liver; settings: calculated by Eq. 3 from literature parameters (Supplement Table S2)
OATP1B1 and OATP1B3 [9] = settings: transporter-expressing cell lines; ref Farasyn et al., 2019; cited from earlier work
OATP1B3 [10] = settings: cited from earlier work
[11] = test system: OATP1B1, NTCP, and OATP1B3; settings: ref Ho et al., 2006; Kitamura et al., 2008; cited from earlier work
[12] = test system: cynomolgus monkey hepatocytes; settings: ref Ufuk et al., 2018; cited from earlier work
human hepatocytes = settings: suspension of human hepatocytes, with vs without rifampicin; ref Bi et al., 2013; cited from earlier work
OATP1B1 [13] = settings: read-out: Michaelis constant (Km) for OATP1B1, cited from earlier work
[14] = human hepatocytes, inhibitor 100 μM co-incubation, mean ± SE

Which “Co-Incubation R” value (OATP1B1 and OATP1B3 [1]) does the source give for `Cc1nc(Nc2ncc(C(=O)Nc3c(C)cccc3Cl)s2)cc(N2CCN(CCO)CC2)n1` [Dasatinib, dasatinib] here?
Its value is 1.09 (1.05–1.14).

And the “Pre+Co-Incubation R” value (OATP1B1 and OATP1B3 [1])?
Its value is 1.27 (1.15–1.51).

And the “Co-Incubation R” value (OATP1B1 [2])?
Its value is 1.07 (1.04–1.09).

And the “Pre+Co-Incubation R” value (OATP1B1 [2])?
Its value is 1.13 (1.09–1.20).

And the “R-values under pre+co-incubation conditions” value (OATP1B1 and OATP1B3 [3])?
Its value is > 1.1.

What about the “Co-Incubation R” value (OATP1B3 [4]) of the same compound?
The value was 1.05 (1.05–1.09).

What about the “Pre+Co-Incubation R” value (OATP1B3 [4]) of the same compound?
Its value is 1.11 (1.09–1.22).

With `O=C1OC(c2ccc(O)c(S(=O)(=O)O)c2)(c2ccc(O)c(S(=O)(=O)O)c2)c2c(Br)c(Br)c(Br)c(Br)c21` [BSP, bromosulfophthalein] as the compound, how does the “accumulation of [3H]rosuvastatin, co-incubation” value (OATP1B1 and OATP1B3 [1]; [14]) read?
The value was 0.20 ± 0.09 fold of control.

And the “inhibition of rosuvastatin uptake, co-incubation” value (OATP1B1 and OATP1B3 [1]; human hepatocytes, inhibitor 100 μM co-incubation, range 77–92%)?
Its value is ~ 84%.

And the “accumulation of [3H]CCK-8, co-incubation” value (OATP1B3 [5]; human hepatocytes, inhibitor 100 μM co-incubation)?
The value was 0.10 ± 0.01 fold of control.

What about the “accumulation of [3H]pitavastatin, co-incubation” value (OATP1B1 and OATP1B3 [6]; [14]) of the same compound?
The value was 0.44 ± 0.05 fold of control.

What does the source list for `CO[C@H]1C[C@@H]2CC[C@@H](C)[C@@](O)(O2)C(=O)C(=O)N2CCCC[C@H]2C(=O)O[C@H]([C@H](C)C[C@@H]2CC[C@@H](O)[C@H](OC)C2)CC(=O)[C@H](C)/C=C(\C)[C@@H](O)[C@@H](OC)C(=O)[C@H](C)C[C@H](C)/C=C/C=C/C=C/1C` [SIR, sirolimus]?
Co-Incubation R (OATP1B1 [7]): 1.00 (1.00–1.03); Co-Incubation R (OATP1B1 and OATP1B3 [1]): 1.00 (1.00–1.00); Pre+Co-Incubation R (OATP1B1 and OATP1B3 [1]): 1.00 (1.00–1.00); accumulation of [3H]rosuvastatin after inhibitor pre-incubation (OATP1B1 and OATP1B3 [1]; human SCH, 1 h pre-incubation at 0.6 μM): 0.63 ± 0.08 fold vs. CTL; R-values under pre+co-incubation conditions (OATP1B1 and OATP1B3 [3]): < 1.1; maximum total plasma concentration at the inlet to the liver (Iin,max,plasma) [8]: 0.03 µM; Co-Incubation R (OATP1B1 and OATP1B3 [6]): 1.00 (1.00–1.01); Pre+Co-Incubation R (OATP1B1 and OATP1B3 [6]): 1.00 (1.00–1.01); accumulation of [3H]pitavastatin after inhibitor pre-incubation (OATP1B1 and OATP1B3 [6]; 1 h pre-incubation at 0.6 μM): did not affect

Which results are given for `CO[C@H]1/C=C/O[C@@]2(C)Oc3c(C)c(O)c4c(O)c(c(/C=N/N5CCN(C)CC5)c(O)c4c3C2=O)NC(=O)/C(C)=C\C=C\[C@H](C)[C@H](O)[C@@H](C)[C@@H](O)[C@@H](C)[C@H](OC(C)=O)[C@@H]1C` [rifampicin]?
accumulation of [3H]rosuvastatin, pre+co-incubation (OATP1B1 and OATP1B3 [1]; human SCH, inhibitor 50 μM, 1 h pre-incubation then co-incubation, mean ± SE): 0.45 ± 0.15 fold of control; accumulation of [3H]CCK-8, pre+co-incubation (OATP1B3 [5]; human SCH, inhibitor 50 μM, 1 h pre-incubation then co-incubation): 0.18 ±0.12 fold of control

Which “Pre+Co-Incubation R” value (OATP1B1 and OATP1B3 [1]) does the source give for `CO[C@H]1C[C@@H]2CC[C@@H](C)[C@@](O)(O2)C(=O)C(=O)N2CCCC[C@H]2C(=O)O[C@H]([C@H](C)C[C@@H]2CC[C@@H](OCCO)[C@H](OC)C2)CC(=O)[C@H](C)/C=C(\C)[C@@H](O)[C@@H](OC)C(=O)[C@H](C)C[C@H](C)/C=C/C=C/C=C/1C` [EVR, everolimus] here?
The value was 1.07 (1.05–1.11).

And the “accumulation of [3H]rosuvastatin after inhibitor pre-incubation” value (OATP1B1 and OATP1B3 [1]; human SCH, 1 h pre-incubation at 0.2 μM, model estimate ± SE)?
Its value is 0.8 ± 0.07 fold of CTL.

What about the “accumulation of [3H]rosuvastatin after inhibitor pre-incubation” value (OATP1B1 and OATP1B3 [1]; human SCH, 1 h pre-incubation at 0.8 μM, model estimate ± SE) of the same compound?
Its value is 0.59 ± 0.07 fold of CTL.

What about the “maximum total plasma concentration at the inlet to the liver (Iin,max,plasma)” value [8] of the same compound?
The value was 0.17 µM.

What about the “R values from cell lines, pre+co-incubation” value (OATP1B1 and OATP1B3 [9]) of the same compound?
Its value is 1.23.

What about the “Co-Incubation R” value (OATP1B1 and OATP1B3 [6]) of the same compound?
Its value is 1.01 (1.01–1.02).

And the “Pre+Co-Incubation R” value (OATP1B1 and OATP1B3 [6])?
Its value is 1.09 (1.08–1.13).

What about the “accumulation of [3H]pitavastatin after inhibitor pre-incubation” value (OATP1B1 and OATP1B3 [6]; 1 h pre-incubation at 0.5 μM, model estimate ± SE) of the same compound?
Its value is 0.78±0.06 fold vs. CTL.

For `CC(C)c1nc(N(C)S(C)(=O)=O)nc(-c2ccc(F)cc2)c1/C=C/[C@@H](O)C[C@@H](O)CC(=O)O` [rosuvastatin], which Km (OATP1B3 [10]; read-out: Michaelis constant (Km) for OATP1B3, ref Kitamura et al., 2008) is on record?
Its Km is 14.2 µM.

And the “contribution of NTCP to active uptake into human hepatocytes” value [11]?
The value was ~35%.

And the “contribution of OATP1B1 to active uptake into human hepatocytes” value [11]?
The value was ~ 50%.

And the “contribution of OATP1B3 to active uptake into human hepatocytes” value [11]?
Its value is ~15%.

And the “uptake clearance attributed to passive diffusion” value [12]?
Its value is 4%.

What about the “share of total hepatic uptake clearance due to active transport processes” value (human hepatocytes) of the same compound?
The value was “approximately 90%”.

What about the Km (OATP1B1 [13]; ref Kitamura et al., 2008) of the same compound?
Its Km is 0.8 µM.

Which Km (OATP1B3 [10]; read-out: Michaelis constant (Km) for OATP1B3, ref Hirano et al., 2004) does the source give for `O=C(O)C[C@H](O)C[C@H](O)/C=C/c1c(C2CC2)nc2ccccc2c1-c1ccc(F)cc1` [pitavastatin] here?
The Km was 3 µM.

What about the “uptake clearance attributed to passive diffusion” value [12] of the same compound?
Its value is 20%.

And the Km (OATP1B1 [13]; ref Hirano et al., 2004)?
Its Km is 3 µM.

For cholecystokinin 8 [CCK-8], which Km (OATP1B3 [10]) is on record?
Its Km is 3.8 µM.

Source: publication PMC11005446 (European journal of pharmaceutical sciences : official …, 2021)
